The structures appear in SMILES notation.

Sequence of human NAMPT enzyme (His-hNAMPT) (P43490 whole entry): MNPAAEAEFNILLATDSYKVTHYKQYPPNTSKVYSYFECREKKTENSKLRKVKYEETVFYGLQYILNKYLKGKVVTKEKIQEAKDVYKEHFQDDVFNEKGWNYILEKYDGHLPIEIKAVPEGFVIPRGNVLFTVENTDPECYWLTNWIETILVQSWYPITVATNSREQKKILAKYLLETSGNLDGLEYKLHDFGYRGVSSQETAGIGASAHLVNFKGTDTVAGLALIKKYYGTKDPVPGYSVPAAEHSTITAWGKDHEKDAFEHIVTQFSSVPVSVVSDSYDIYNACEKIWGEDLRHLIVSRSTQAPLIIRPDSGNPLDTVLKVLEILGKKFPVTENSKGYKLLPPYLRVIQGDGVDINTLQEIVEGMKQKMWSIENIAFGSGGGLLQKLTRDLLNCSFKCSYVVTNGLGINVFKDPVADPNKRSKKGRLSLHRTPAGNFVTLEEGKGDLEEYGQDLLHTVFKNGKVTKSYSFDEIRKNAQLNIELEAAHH

One experiment has as its target human NAMPT enzyme (His-hNAMPT) (Homo sapiens (Human), UniProt P43490). Nature of the experiment: NAMPT enzymatic inhibition assay (fluorescence, NADH product). The format is biochemical. As to conditions: [BPS]; read-out: NAMPT IC50 (μM) [BPS].
`N#CN=C(NCC[C@@H]1[C@H]2CN(C(=O)c3ccccc3)C[C@@H]12)Nc1ccncc1` [Example 228, (E)-1-(2-((1R,5S,6s)-3-benzoyl-3-azabicyclo[3.1.0]hexan-6-yl)ethyl)-2-cyano-3-(pyridin-4-yl)guanidine]: the half-inhibitory concentration (IC50) was 0.01 to 0.49 µM.
The same measure, in the same setting: as for `CC1(OC(=O)N2C[C@@H]3[C@@H](CCN/C(=N\C#N)Nc4ccncc4)[C@@H]3C2)COC1` [Example 229, (1R,5S,6s)-3-methyloxetan-3-yl 6-(2-((E)-2-cyano-3-(pyridin-4-yl)guanidino)ethyl)-3-azabicyclo[3.1.0]hexane-3-carboxylate], the figure is 0.01 to 0.49 µM.
On the same count and under the same terms, as for `CC1(OC(=O)N2C[C@@H]3[C@@H](CCNC(=O)N4Cc5ccccc5C4)[C@@H]3C2)COC1` [Example 230, (1R,5S,6s)-3-methyloxetan-3-yl 6-(2-(isoindoline-2-carboxamido)ethyl)-3-azabicyclo[3.1.0]hexane-3-carboxylate], the figure is 0.01 to 0.49 µM; as for `CC(C)(C)OC(=O)N1C[C@@H]2[C@@H](CNC(=O)c3cc(-c4cccnc4)on3)[C@@H]2C1` [Example 231, (1R,5S,6s)-tert-butyl 6-((5-(pyridin-3-yl)isoxazole-3-carboxamido)methyl)-3-azabicyclo[3.1.0]hexane-3-carboxylate], 1 to 29 µM; as for `CC(C)(C)OC(=O)N1C[C@@H]2[C@@H](CNC(=O)/C=C/c3cccnc3)[C@@H]2C1` [Example 232, (1R,5S,6s)-tert-butyl 6-(((E)-3-(pyridin-3-yl)acrylamido)methyl)-3-azabicyclo[3.1.0]hexane-3-carboxylate], 0.01 to 0.49 µM.
Still for that read-out and setting: as for `CC(C)(C)OC(=O)N1C[C@@H]2[C@@H](CNC(=O)COc3cccnc3)[C@@H]2C1` [Example 233, (1R,5S,6s)-tert-butyl 6-((2-(pyridin-3-yloxy)acetamido)methyl)-3-azabicyclo[3.1.0]hexane-3-carboxylate], the figure is more than 30 µM; as for `CC(C)(C)OC(=O)N1C[C@@H]2[C@@H](CNC(=O)/C=C/c3ccc(N)nc3)[C@@H]2C1` [Example 234, (1R,5S,6s)-tert-butyl 6-(((E)-3-(6-aminopyridin-3-yl)acrylamido)methyl)-3-azabicyclo[3.1.0]hexane-3-carboxylate], 1 to 29 µM.
`CC(C)(C)OC(=O)N1C[C@@H]2[C@@H](CNC(=O)c3cc4ccncc4o3)[C@@H]2C1` [Example 235, (1R,5S,6s)-tert-butyl 6-((furo[2,3-c]pyridine-2-carboxamido)methyl)-3-azabicyclo[3.1.0]hexane-3-carboxylate]: the concentration for half-maximal inhibition (IC50) was in the range of 1 to 29 µM.
On the same count and under the same terms, as for `CC(C)(C)OC(=O)N1C[C@@H]2[C@@H](CNC(=O)c3cc4ccncc4s3)[C@@H]2C1` [Example 236, (1R,5S,6s)-tert-butyl 6-((thieno[2,3-c]pyridine-2-carboxamido)methyl)-3-azabicyclo[3.1.0]hexane-3-carboxylate], the figure is more than 30 µM; as for `O=C(/C=C/c1cccnc1)NC[C@@H]1[C@H]2CN(C(=O)c3ccccc3)C[C@@H]12` [Example 237, (E)-N-(((1R,5S,6s)-3-benzoyl-3-azabicyclo[3.1.0]hexan-6-yl)methyl)-3-(pyridin-3-yl)acrylamide], 0.5 to 0.99 µM; as for `CC1(OC(=O)N2C[C@@H]3[C@@H](CNC(=O)/C=C/c4cccnc4)[C@@H]3C2)COC1` [Example 238, (1R,5S,6s)-3-methyloxetan-3-yl 6-(((E)-3-(pyridin-3-yl)acrylamido)methyl)-3-azabicyclo[3.1.0]hexane-3-carboxylate], 1 to 29 µM.
The same measure, in the same setting: for `CC1(OC(=O)N2C[C@@H]3[C@@H](CNC(=O)/C=C/c4ccc(N)nc4)[C@@H]3C2)COC1` [Example 239, (1R,5S,6s)-3-methyloxetan-3-yl 6-(((E)-3-(6-aminopyridin-3-yl)acrylamido)methyl)-3-azabicyclo[3.1.0]hexane-3-carboxylate] the value was 1 to 29 µM; for `Nc1ccc(/C=C/C(=O)NC[C@@H]2[C@H]3CN(C(=O)c4ccccc4)C[C@@H]23)cn1` [Example 240, (E)-3-(6-aminopyridin-3-yl)-N-(((1R,5S,6s)-3-benzoyl-3-azabicyclo[3.1.0]hexan-6-yl)methyl)acrylamide], 1 to 29 µM; for `CC(C)(C)OC(=O)N1C[C@@H]2[C@H](C1)[C@H]2CC1(NC(=O)/C=C/c2ccc(N)nc2)CC1` [Example 241, (1R,5S,6s)-tert-butyl 6-((1-((E)-3-(6-aminopyridin-3-yl)acrylamido)cyclopropyl)methyl)-3-azabicyclo[3.1.0]hexane-3-carboxylate], 1 to 29 µM.
On the same count and under the same terms, for `CC(C)(C)OC(=O)N1C[C@@H]2[C@H](C1)[C@H]2CC1(NC(=O)/C=C/c2cccnc2)CC1` [Example 242, (1R,5S,6s)-tert-butyl 6-((1-((E)-3-(pyridin-3-yl)acrylamido)cyclopropyl)methyl)-3-azabicyclo[3.1.0]hexane-3-carboxylate] the value was more than 30 µM.

The same experiment, now with this note: [HDB]; read-out: NAMPT IC50 (μM) [HDB].
Turning to `O=C(NCC[C@@H]1[C@H]2CN(c3nc(Cl)ncc3F)C[C@@H]12)N1Cc2ccncc2C1` [Example 226, N-(2-((1R,5S,6s)-3-(2-chloro-5-fluoropyrimidin-4-yl)-3-azabicyclo[3.1.0]hexan-6-yl)ethyl)-1H-pyrrolo[3,4-c]pyridine-2(3H)-carboxamide], the half-inhibitory concentration (IC50) lay within 0.01 to 0.49 µM.
Still for that read-out and setting: for `O=C(NCC[C@@H]1[C@H]2CN(c3nc(Cl)ncc3F)C[C@@H]12)N1Cc2cccnc2C1` [Example 227, N-(2-((1R,5S,6s)-3-(2-chloro-5-fluoropyrimidin-4-yl)-3-azabicyclo[3.1.0]hexan-6-yl)ethyl)-5H-pyrrolo[3,4-b]pyridine-6(7H)-carboxamide] the value was 0.01 to 0.49 µM; for `CC(C)(C)OC(=O)N1C[C@@H]2[C@@H](CNC(=O)COc3cccnc3)[C@@H]2C1` [Example 233, (1R,5S,6s)-tert-butyl 6-((2-(pyridin-3-yloxy)acetamido)methyl)-3-azabicyclo[3.1.0]hexane-3-carboxylate], 1 to 29 µM; for `O=C(/C=C/c1cccnc1)NCC[C@@H]1[C@H]2CN(Cc3ccccc3)C[C@@H]12` [Example 243, (E)-N-(2-((1R,5S,6s)-3-benzyl-3-azabicyclo[3.1.0]hexan-6-yl)ethyl)-3-(pyridin-3-yl)acrylamide], 0.01 to 0.49 µM.
Still for that read-out and setting: as for `O=C(/C=C/c1cccnc1)NCC[C@@H]1[C@H]2CN(Cc3ccc(C(F)(F)F)cc3)C[C@@H]12` [Example 244, (E)-3-(pyridin-3-yl)-N-(2-((1R,5S,6s)-3-(4-(trifluoromethyl)benzyl)-3-azabicyclo[3.1.0]hexan-6-yl)ethyl)acrylamide], the figure is 0.01 to 0.49 µM; as for `CC(C)N1C[C@@H]2[C@@H](CCNC(=O)/C=C/c3cccnc3)[C@@H]2C1` [Example 245, (E)-N-(2-((1R,5S,6s)-3-isopropyl-3-azabicyclo[3.1.0]hexan-6-yl)ethyl)-3-(pyridin-3-yl)acrylamide], 1 to 29 µM; as for `O=C(/C=C/c1cccnc1)NCC[C@@H]1[C@H]2CN(CC3CCOCC3)C[C@@H]12` [Example 246, (E)-3-(pyridin-3-yl)-N-(2-((1R,5S,6s)-3-((tetrahydro-2H-pyran-4-yl)methyl)-3-azabicyclo[3.1.0]hexan-6-yl)ethyl)acrylamide], 0.5 to 0.99 µM.
In the case of `O=C(/C=C/c1cccnc1)NCC[C@@H]1[C@H]2CN(Cc3ccc(F)cc3)C[C@@H]12` [Example 247, (E)-N-(2-((1R,5S,6s)-3-(4-fluorobenzyl)-3-azabicyclo[3.1.0]hexan-6-yl)ethyl)-3-(pyridin-3-yl)acrylamide], the IC50 fell in the range of 0.01 to 0.49 µM.
Still for that read-out and setting: for `O=C(/C=C/c1cccnc1)NCC[C@@H]1[C@H]2CN(Cc3ccc(F)cc3F)C[C@@H]12` [Example 248, (E)-N-(2-((1R,5S,6s)-3-(2,4-difluorobenzyl)-3-azabicyclo[3.1.0]hexan-6-yl)ethyl)-3-(pyridin-3-yl)acrylamide] the value was 0.01 to 0.49 µM.

Broadly, the IC50 is the concentration that gives 50% inhibition.
